Assays:
Assay type in all cases: in vivo, human
[1] = test system: gastric tumours co-expressing EGFR and HER2 or HER2 amplified; assay: Phase I monotherapy trial in gastric cancer patients, tumour biopsies analysed by immunohistochemistry; conditions: monotherapy 500 mg orally BID for 28 days, 23 patients; biopsies before and after treatment
Method: (R)—N4-[3-Chloro-4-(thiazol-2-ylmethoxy)-phenyl]-N6-(4-methyl-4,5,-dihydro-oxazol-2-yl)-quinazoline-4,6-diamine (Varlitinib Example 52 disclosed in WO2005/016346), is a small-molecule pan-HER inhibitor. It has been tested as a monotherapy in phase I clinical trials of gastric cancer patients. 23 patients, who had previously failed on one or more rounds of chemotherapy, and where eligible for trastuzumab, each received 500 mg of Varlitinib orally twice daily (BID) as monotherapy for 28 days. Tumour biopsies taken before and after treatment were analysed using immunohistochemistry.

[2] = test system: stage IV Cholangiocarcinoma and metastatic lymphadenopathy; assay: Treatment of stage IV cholangiocarcinoma and metastatic lymphadenopathy patient with Varlitinib and cisplatin/5FU; conditions: person, first line, 300 mg BID Varlitinib combined with Cis/5-FU
Method: Example 5 Treatment of Stage IV Cholangiocarcinoma and Metastatic Lymphadenopathy with Varlitinib 400 mg Bi-Daily Orally and Cisplatin/5FU Combination Chemotherapy A person with stage IV Cholangiocarcinoma and metastatic lymphadenopathy diagnosed in January 2016, no prior surgery or treatment was give first line treatment of 300 mg BID Varlitinib combined with Cis/5-FU, 28-day cycle.

[3] = test system: intrahepatic bile duct cholangiocarcinoma; assay: Treatment of intrahepatic bile duct cholangiocarcinoma patient with Varlitinib and FOLFOX; conditions: person, progressive on gemcitabine and cisplatin; 9 cycles Varlitinib 400 mg reduced to 300 mg BID and FOLFOX, then 7 cycles monotherapy
Method: Example 6 Treatment of the Intrahepatic Bile Duct Cholangiocarcinoma with 300 mg Valitinib and FOLFOX A person diagnosed in 2013 with intrahepatic bile duct cholangiocarcinoma, had received surgery in the form of left hemihepatectomy in 15 Jul. 2013. Prior therapies were gemcitabine and cisplatin 14 Aug. 2013 with last dose 8 Jan. 2014 and repeated between 13 May 2015 and 1 Jul. 2015. With this treatment the status was progressive disease. The patient was give 9 cycles combination Varlitinib 400 mg reduced to 300 mg BID and FOLFOX. This was followed with 7 cycles of Valitinib monotherapy.

tumour = assay: Clinical data summary as of June 2016, Varlitinib combination arms
Text: As of June 2016 the following clinical data summary: […]

gastric cancer = assay: Treatment of gastric cancer patients with Varlitinib 400 mg bi-daily and cisplatin/capecitabine chemotherapy; conditions: for tolerability / dose limiting toxicity: 400 mg bi-daily with cisplatin and capecitabine; for dose limiting toxicity: first two treatment cycles
Method: Example 1 Treatment of Gastric Cancer with Valitinib 400 mg Bi-Daily Orally and Cisplatin/Capecitabine Combination Chemotherapy
person one with Her2 positive (3+) stage IV gastric cancer had progressive disease in the form of 2 target lesions following: • first line treatment with cisplatin and Xeloda® (capecitabine)—4 cycles, • second line treatment with the experimental drug TDM1 (an antibody drug conjugate comprising Herceptin®)—9 cycles, • third line treatment with experimental drug LJM716 (a Her3 monoclonal antibody) and Herceptin®.
After treatment cycle 4 with ASLAN001 400 mg bi-daily, cisplatin and capecitabine, see FIG. 1. […] The cisplatin and capecitabine regime was cisplatin 80 mg/m^2 IV infusion and capecitabine 1000 mg/m^2 orally twice daily for 14 days every 3 weeks.
person two with gastric cancer (4 target lesions) was given first line treatment of Valitinib 400 mg bi-daily, cisplatin and capecitabine. […] The cisplatin and capecitabine regime was cisplatin 80 mg/m^2 IV infusion and capecitabine 1000 mg/m^2 orally twice daily for 14 days every 3 weeks.

[4] = test system: stage IV sigmoid colorectal cancer; assay: Treatment of stage IV sigmoid colorectal cancer patient with Varlitinib 300 mg BID and oxaliplatin/capecitabine; conditions: person, stage IV sigmoid colorectal cancer with metastasis, 300 mg bi-daily
Method: Example 4 Treatment of Stage IV Sigmoid Coloreactal Cancer with Varlitinib 300 mg BID Oxaliplatin/Capecitabine
A person with stage IV sigmoid colorectal cancer with metastasis to liver, lungs and lymph node.
The prior treatments included: • Anterior resection with right hemi-hepatetomy and cholecystecomy • XELOX (PD), XELIRI (PR), Irrinotecan & Cetuximab (SD) • Xeloda and Avastin (SD), Bayer PTEFb-CDK9 inhibitor (PD)
The treatment per 3 weeks cycle was 300 mg ASLAN001 orally bi-daily, oxaliplatin 130 mg/m^2 IV infusion (Day 1) and capecitabine 850 mg/m^2 (Day 1-14) until Cycle 6, then from Cycle 7+ onwards, Varlitinib 300 mg b-daily as monotherapy per 4 week cycle.

bladder cancer = assay: Treatment of bladder cancer patient with 300 mg Valitinib and FOLFOX; conditions: person
Method: Example 7 Treatment of the Bladder Cancer with 300 mg Valitinib and FOLFOX A person was diagnosed with bladder cancer 2014. They received radical cystoprostatetomy and prior therapy with Cisplatin and radiotherapy (pelvis) on 20 Feb. 2014; gemcitabline and cisplatin on 10 Apr. 2015 with last dose on 8 May 2015. The patient received 9 cycles of 300 mg Valitinib BID and FOLFOX and 5 cycles of Varlitinib 300 mg monotherapy. The Valitinib in the combination therapy interruption from 21 to 27 Sep. 2015; 21 Oct. to 23 Oct.

[5] = test system: stage IV cholangiocarcinoma; assay: Treatment of cholangiocarcinoma patients with Varlitinib bi-daily and cisplatin/capecitabine chemotherapy; conditions: person
Method: Example 2 Treatment of Cholangiocarcinoma with Varlitinib 400 mg Bi-Daily Orally and Cisplatin/Capecitabine Combination Chemotherapy A person with stage IV cholangiocarcinoma (3 lesions) had progressive disease following treatment with: • radiotherapy, and • gemcitabine (Gemzar®) and cisplatin—6 months. […] The cisplatin and capecitabine regime was cisplatin 80 mg/m^2 IV infusion and capecitabine 1000 mg/m^2 orally twice daily for 14 days every 3 weeks. Example 3 Treatment of Cholangiocarcinoma with Varlitinib 500 mg Bi-Daily Orally and Cisplatin/Capecitabine Combination Chemotherapy A person with stage IV cholangiocarcinoma had progressive disease following treatment with radiotherapy and bi-weekly 5-FU. […] The cisplatin and capecitabine regime was cisplatin 80 mg/m^2 IV infusion and capecitabine 1000 mg/m^2 orally twice daily for 14 days every 3 weeks.

[6] = 9 cycles 300 mg BID and FOLFOX, then 5 cycles 300 mg monotherapy

`C[C@@H]1COC(Nc2ccc3ncnc(Nc4ccc(OCc5nccs5)c(Cl)c4)c3c2)=N1` [Varlitinib, (R)—N4-[3-Chloro-4-(thiazol-2-ylmethoxy)-phenyl]-N6-(4-methyl-4,5,-dihydro-oxazol-2-yl)-quinazoline-4,6-diamine] was tested, and the “signs of clinical activity: cell survival and proliferation” value [1] was “reduction in cell survival and cell proliferation”, the “signs of clinical activity: signalling pathways” value [1] was “downregulation of signalling pathways responsible for cell proliferation” and the current disease status [2] was “stable disease”. The “tumor reduction at first response (C2)” value ([2]; 28-day cycle, 5 Mar. 2016) was 16%, the “tumor reduction at last response (C4)” value ([2]; 28-day cycle, 17 May 2016) was 13% and the patient status [3] was “partial response”. The “Best response (% change)” value (tumour; Combo with cis/5-FU, 300 mg Varlitinib, 6 patients) was −21%, the “Best response (% change)” value (tumour; Combo with cis/5-FU, 400 mg Varlitinib, 7 patients) was −47% and the “Best response (% change)” value (tumour; Combo with cis/cap, 400 mg Varlitinib, 6 patients) was −87%. For the same compound, the “Best response (% change)” value (tumour; Combo with cis/cap, 500 mg Varlitinib, 4 patients) was −4%, the “response after treatment cycle 4” value (gastric cancer; person one, Her2 positive (3+) stage IV gastric cancer, progressive after three prior lines, Varlitinib 400 mg bi-daily, cisplatin and capecitabine) was 29% and the tolerability (gastric cancer; person one, gastric cancer) was “well tolerated”. The dose limiting toxicity (gastric cancer; person one, gastric cancer) was “No dose limiting toxicity was observed”, the disease status category (gastric cancer; person one, stage IV gastric cancer, after cycle 4 of Varlitinib 400 mg bi-daily, cisplatin and capecitabine) was “stable disease” and the “response after cycle 4” value (gastric cancer; person two, gastric cancer (4 target lesions), first line, 400 mg bi-daily, cisplatin and capecitabine) was 41%. The tolerability (gastric cancer; person two, gastric cancer) was “well tolerated”, the disease status designation (gastric cancer; person two, gastric cancer, due to development of a new bone lesion) was “progression disease” and the dose limiting toxicity (gastric cancer; person two, gastric cancer) was “No dose limiting toxicity was observed”. The “response after 2 cycles (figure)” value [4] was 335, the “response category after 2 cycles” value [4] was “partial response” and the “adverse event leading to treatment interruption” value (bladder cancer; 300 mg BID and FOLFOX combination therapy) was “G2 weight loss”. The “best % tumour change” value (bladder cancer; [6]) was −4%, the patient status (bladder cancer; [6]) was “stable disease” and the tolerability ([5]; cholangiocarcinoma, 400 mg bi-daily with cisplatin and capecitabine) was “well tolerated”. The dose limiting toxicity ([5]; cholangiocarcinoma, first two treatment cycles, 400 mg bi-daily with cisplatin and capecitabine) was “No dose limiting toxicity was observed” and the “response after treatment cycle 2” value ([5]; stage IV cholangiocarcinoma, progressive after radiotherapy and 5-FU, Varlitinib orally 500 mg bi-daily, cisplatin and capecitabine) was 4%.

Reference: US10357494B2, “Combination therapy comprising varlitinib and an anticancer agent” (ASLAN Pharmaceuticals PTE LTD, priority 2015, dated 2019)
